Laboratory results from publication PMC12566511, “The Evaluation of (1R,4R,7R,10R)-α,α′,α″,α‴-Tetramethyl-1,4,7,10-tetraazacyclododecane-1,4,7,10-tetraacetic Acid (DOTMA) as a Chelator for Zirconium-89” (Molecules, 2025).
“Also recorded” adds a separate entry of the source.

What was measured:
[1] = In vitro serum stability study; assay type: in vitro ADME, human; conditions: for % Intact of [^89Zr]Zr-DOTMA (n = 3) Radio-ITLC / % Intact of [^89Zr]Zr-DOTMA (n = 3) Radio-SE-HPLC: human serum, 37 °C
Description: The in vitro serum stability was determined by adding 20 μL of [^89Zr]Zr-DOTMA (113–124 μCi, 4.2–4.6 MBq) to 500 μL of human serum. The solutions (n = 3) were incubated at 37 °C for 7 days and were analyzed daily for 1 week by radio-TLC using Varian ITLC-SA strips, 0.1 M EDTA (pH 5) as the mobile phase, and gamma counting. Samples were also analyzed at 1, 3, 5, and 7 days via size exclusion chromatography (SEC) using a Superdex 200 10/300 GL column (GE Healthcare Life Sciences, Piscataway, NJ, USA) and phosphate buffered saline (PBS) as an eluent with a flow rate of 0.5 mL/min. Fractions (0.5 mL per tube) were collected, and the activity in each fraction was measured in a gamma counter. The percent intact radiopharmaceutical was determined by […] in the chromatogram and multiplying by a factor of 100%.

[2] = Partition coefficient (LogP), water/octanol partition method; assay type: physicochemical; conditions: octanol/water (pH 5.5), room temperature, n = 5
Description: The partition coefficient (LogP) was determined by adding 5 μL of [^89Zr]Zr-DOTMA (~5 μCi; 0.19 MBq) to a mixture of 500 μL of octanol and 500 μL of water (pH 5.5). The resulting solutions (n = 5) were vigorously vortexed for 5 min at room temperature, then centrifuged for 5 min to ensure complete separation of layers. From each of the five sets, a 50 μL aliquot was removed from each phase into new tubes and counted separately in a gamma counter. Each organic phase was washed with water to remove any radioactivity remaining in the organic phase before gamma counting. The partition coefficient was calculated as a ratio of counts in the octanol fraction to counts in the water fraction. The LogP values were reported as an average of five measurements.

[3] = In vitro metal competition study; assay type: physicochemical; conditions: for % Intact of [^89Zr]Zr-Complex (n = 3): PBS pH 7.4, 37 °C, radio-ITLC
Description: To separate solutions of metal cations (iron(III) chloride, cobalt(II) chloride, zinc(II) chloride, copper(II) chloride, magnesium(II) chloride, gallium(III) nitrate, and gadolinium(III) chloride) (1.0 mM, 200 μL), [^89Zr]Zr-DOTMA complex (0.1 mM, 20 μL, 110−119 μCi, 4.1–4.4 MBq) in PBS (pH 7.4) was added. The resulting solutions (n = 3) were incubated at 37 °C for 7 days in a thermomixer. Dissociation of ^89Zr from [^89Zr]Zr-DOTMA complex was monitored by radio-TLC at 0, 1, 3, 5, and 7 days using radio-TLC, Varian ITLC-SA strips, 50 mM EDTA (pH 5) as the mobile phase, and gamma counting. All studies were performed in triplicate.

## CC(C(=O)[O-])N1CCN(C(C)C(=O)[O-])CCN(C(C)C(=O)[O-])CCN(C(C)C(=O)[O-])CC1.[89Zr+4] (stereo not drawn) [[^89Zr]Zr-DOTMA]
[1]; 0 h
  % Intact of [^89Zr]Zr-DOTMA (n = 3) Radio-ITLC: ≥99.99%
  % Intact of [^89Zr]Zr-DOTMA (n = 3) Radio-SE-HPLC: ≥99.99%
[1]; 1 d
  % Intact of [^89Zr]Zr-DOTMA (n = 3) Radio-ITLC: ≥99.99%
  % Intact of [^89Zr]Zr-DOTMA (n = 3) Radio-SE-HPLC: ≥99.99%
[1]; 3 d
  % Intact of [^89Zr]Zr-DOTMA (n = 3) Radio-ITLC: ≥99.99%
  % Intact of [^89Zr]Zr-DOTMA (n = 3) Radio-SE-HPLC: ≥99.99%
[1]; 5 d
  % Intact of [^89Zr]Zr-DOTMA (n = 3) Radio-ITLC: ≥99.99%
  % Intact of [^89Zr]Zr-DOTMA (n = 3) Radio-SE-HPLC: ≥99.99%
[1]; 7 d
  % Intact of [^89Zr]Zr-DOTMA (n = 3) Radio-ITLC: ≥99.99%
  % Intact of [^89Zr]Zr-DOTMA (n = 3) Radio-SE-HPLC: 99.9 ± 0.1%
[1]; incubation in human serum, seven-day time course
  association of ^89Zr with serum proteins (in words): not associated with the serum proteins
[2]
  LogP: −2.97± 0.02
[3]; Co^2+, 0 h
  % Intact of [^89Zr]Zr-Complex (n = 3): ≥99.99%
[3]; Co^2+, 1 d
  % Intact of [^89Zr]Zr-Complex (n = 3): ≥99.99%
[3]; Co^2+, 3 d
  % Intact of [^89Zr]Zr-Complex (n = 3): ≥99.99%
[3]; Co^2+, 5 d
  % Intact of [^89Zr]Zr-Complex (n = 3): ≥99.99%
[3]; Co^2+, 7 d
  % Intact of [^89Zr]Zr-Complex (n = 3): ≥99.99%
[3]; Cu^2+, 0 h
  % Intact of [^89Zr]Zr-Complex (n = 3): ≥99.99%
[3]; Cu^2+, 1 d
  % Intact of [^89Zr]Zr-Complex (n = 3): ≥99.99%
[3]; Cu^2+, 3 d
  % Intact of [^89Zr]Zr-Complex (n = 3): ≥99.99%
[3]; Cu^2+, 5 d
  % Intact of [^89Zr]Zr-Complex (n = 3): ≥99.99%
[3]; Cu^2+, 7 d
  % Intact of [^89Zr]Zr-Complex (n = 3): ≥99.99%
[3]; Fe^3+, 0 h
  % Intact of [^89Zr]Zr-Complex (n = 3): ≥99.99%
[3]; Fe^3+, 1 d
  % Intact of [^89Zr]Zr-Complex (n = 3): ≥99.99%
[3]; Fe^3+, 3 d
  % Intact of [^89Zr]Zr-Complex (n = 3): ≥99.99%
[3]; Fe^3+, 5 d
  % Intact of [^89Zr]Zr-Complex (n = 3): ≥99.99%
[3]; Fe^3+, 7 d
  % Intact of [^89Zr]Zr-Complex (n = 3): ≥99.99%
[3]; Fe^3+, Co^2+, Zn^2+, Cu^2+, Mg^2+, Ga^3+ or Gd^3+ ions, seven-day time course
  demetallation when challenged with high concentrations of metal ions (in words): inert; also recorded: no demetallation
[3]; Ga^3+, 0 h
  % Intact of [^89Zr]Zr-Complex (n = 3): ≥99.99%
[3]; Ga^3+, 1 d
  % Intact of [^89Zr]Zr-Complex (n = 3): ≥99.99%
[3]; Ga^3+, 3 d
  % Intact of [^89Zr]Zr-Complex (n = 3): ≥99.99%
[3]; Ga^3+, 5 d
  % Intact of [^89Zr]Zr-Complex (n = 3): ≥99.99%
[3]; Ga^3+, 7 d
  % Intact of [^89Zr]Zr-Complex (n = 3): ≥99.99%
[3]; Gd^3+, 0 h
  % Intact of [^89Zr]Zr-Complex (n = 3): ≥99.99%
[3]; Gd^3+, 1 d
  % Intact of [^89Zr]Zr-Complex (n = 3): ≥99.99%
[3]; Gd^3+, 3 d
  % Intact of [^89Zr]Zr-Complex (n = 3): ≥99.99%
[3]; Gd^3+, 5 d
  % Intact of [^89Zr]Zr-Complex (n = 3): ≥99.99%
[3]; Gd^3+, 7 d
  % Intact of [^89Zr]Zr-Complex (n = 3): ≥99.99%
[3]; Mg^2+, 0 h
  % Intact of [^89Zr]Zr-Complex (n = 3): ≥99.99%
[3]; Mg^2+, 1 d
  % Intact of [^89Zr]Zr-Complex (n = 3): ≥99.99%
[3]; Mg^2+, 3 d
  % Intact of [^89Zr]Zr-Complex (n = 3): ≥99.99%
[3]; Mg^2+, 5 d
  % Intact of [^89Zr]Zr-Complex (n = 3): ≥99.99%
[3]; Mg^2+, 7 d
  % Intact of [^89Zr]Zr-Complex (n = 3): ≥99.99%
[3]; Zn^2+, 0 h
  % Intact of [^89Zr]Zr-Complex (n = 3): ≥99.99%
[3]; Zn^2+, 1 d
  % Intact of [^89Zr]Zr-Complex (n = 3): ≥99.99%
[3]; Zn^2+, 3 d
  % Intact of [^89Zr]Zr-Complex (n = 3): ≥99.99%
[3]; Zn^2+, 5 d
  % Intact of [^89Zr]Zr-Complex (n = 3): ≥99.99%
[3]; Zn^2+, 7 d
  % Intact of [^89Zr]Zr-Complex (n = 3): ≥99.99%
